# Experimental data as given in US20120255051A1, “HERBICIDE TOLERANT PLANTS” (priority 2009, published 2012).
# Tested on: Brassica plants comprising mutant AHAS alleles
# Assay: Field trial, pre-planting treatment (0, 10, 20, 30 g a.i./ha), two locations in Canada: ERG, EST1, EST2, PPTOX, VIG1, VIG2, VIG3 scores
# Format: in vivo, Brassica napus
# Conditions: for establishment (EST1) score Av, 14 days after sowing / emergence (ERG) score Av: AHAS1 WT
# Text: Tests were set up and conducted to asses the growth and performance of plants comprising AHAS full knock-out alleles, and to further analyze the correlation between the presence of full knockout and missense AHAS genes in Brassica plants and plant growth and herbicide tolerance of the Brassica plants in the field. To this end, the Brassica plants identified in Example 1 and 2 were backcrossed two times with an elite parent line, and subsequently selfed twice to obtain homozygous plants (BC2S2). Plants were grown as row plots in a split plot design with three replicates (main plots=herbicide treatments, subplots=genotypes) at two locations in Canada. Treatment pre-planting was carried out on the soil about two days before sowing with a dose of 0 (treatment A), 10 (treatment B), 20 (treatment C) or 30 (treatment D) g a.i./ha of thiencarbazone methyl. Herbicide tolerance was measured by scoring for different parameters. The parameter emergence (ERG) was scored at the cotyledon stage on a scale 1-9, where 1 means late emergence and 9 means early emergence. Establishment was scored 14 days after sowing (EST1) and 21 days after sowing (EST2). Scores were from 1 to 9, where 1 is the worst establishment (least plants that emerged), and 9 is the best establishment (most plants emerged). Phytotoxicity (PPTOX) was determined after establishment. Plants were evaluated on a scale of 1 to 9, where 1=completely yellowing, 5=50% of plant is yellow and 9=no yellowing. The vigor scores (see above) were determined at 1-2 leaf stage (VIG1), 7 days after VIG1 (VIG2) and 14 days after VIG1 (VIG3). The average values (Av) and standard deviations (SD) of the scores for the different parameters are represented in Table 7a-g.
# Further, the contribution of the knock-out allele to herbicide tolerance conferred by the missense allele was calculated. First, the scores were corrected for a possible effect of the growth per se, independent of herbicide treatment. To this end, the scores for treatments B, C and D were divided by the scores for treatment A for the same genotype and for the same parameter (corrected herbicide tolerance scores). Next, the effect of the knock-out allele to these corrected herbicide tolerance scores obtained by the missense allele was calculated. Therefore, the corrected herbicide tolerance scores for the missense—knock-out allele combination was divided by the corrected herbicide tolerance scores for the missense allele—wild-type combination. In case the knock-out allele has no effect on herbicide tolerance conferred by the missense allele, this ratio should be 1. In case the knock-out allele positively contributes to the herbicide tolerance conferred by the missense allele, this ratio should be higher than 1. The results for the contribution of the knock-out allele to herbicide tolerance conferred by the missense allele as calculated above are shown in table 8.
# [1] = AHAS3 HETO111 (HETO108+HETO111 series), treatment B 10 g a.i./ha pre-planting, Location B
# [2] = AHAS3 HETO111 (HETO108+HETO111 series), treatment C 20 g a.i./ha pre-planting, Location A
# [3] = AHAS3 HETO111 (HETO108+HETO111 series), treatment C 20 g a.i./ha pre-planting, Location B
# [4] = AHAS3 HETO111 (HETO108+HETO111 series), treatment D 30 g a.i./ha pre-planting, Location A
# [5] = AHAS3 HETO111 (HETO108+HETO111 series), treatment D 30 g a.i./ha pre-planting, Location B
# [6] = AHAS3 HETO111 (HETO112+HETO111 series), treatment B 10 g a.i./ha pre-planting, Location A
# [7] = AHAS3 HETO111 (HETO112+HETO111 series), treatment B 10 g a.i./ha pre-planting, Location B
# [8] = AHAS3 HETO111 (HETO112+HETO111 series), treatment C 20 g a.i./ha pre-planting, Location A
# [9] = AHAS3 HETO111 (HETO112+HETO111 series), treatment C 20 g a.i./ha pre-planting, Location B
# [10] = AHAS3 HETO111 (HETO112+HETO111 series), treatment D 30 g a.i./ha pre-planting, Location A
# [11] = AHAS3 HETO111 (HETO112+HETO111 series), treatment D 30 g a.i./ha pre-planting, Location B
# [12] = AHAS3 WT (HETO108+HETO104 series), treatment B 10 g a.i./ha pre-planting, Location A
# [13] = AHAS3 WT (HETO108+HETO104 series), treatment B 10 g a.i./ha pre-planting, Location B
# [14] = AHAS3 WT (HETO108+HETO104 series), treatment C 20 g a.i./ha pre-planting, Location A
# [15] = AHAS3 WT (HETO108+HETO104 series), treatment C 20 g a.i./ha pre-planting, Location B
# [16] = AHAS3 WT (HETO108+HETO104 series), treatment D 30 g a.i./ha pre-planting, Location A
# [17] = AHAS3 WT (HETO108+HETO104 series), treatment D 30 g a.i./ha pre-planting, Location B
# [18] = AHAS3 WT (HETO108+HETO111 series), treatment B 10 g a.i./ha pre-planting, Location A
# [19] = AHAS3 WT (HETO108+HETO111 series), treatment B 10 g a.i./ha pre-planting, Location B
# [20] = AHAS3 WT (HETO108+HETO111 series), treatment C 20 g a.i./ha pre-planting, Location A
# [21] = AHAS3 WT (HETO108+HETO111 series), treatment C 20 g a.i./ha pre-planting, Location B
# [22] = AHAS3 WT (HETO108+HETO111 series), treatment D 30 g a.i./ha pre-planting, Location A
# [23] = AHAS3 WT (HETO108+HETO111 series), treatment D 30 g a.i./ha pre-planting, Location B
# [24] = AHAS3 WT (HETO112+HETO111 series), treatment B 10 g a.i./ha pre-planting, Location A
# [25] = AHAS3 WT (HETO112+HETO111 series), treatment B 10 g a.i./ha pre-planting, Location B
# [26] = AHAS3 WT (HETO112+HETO111 series), treatment C 20 g a.i./ha pre-planting, Location A
# [27] = AHAS3 WT (HETO112+HETO111 series), treatment C 20 g a.i./ha pre-planting, Location B
# [28] = AHAS3 WT (HETO112+HETO111 series), treatment D 30 g a.i./ha pre-planting, Location A
# [29] = AHAS3 WT (HETO112+HETO111 series), treatment D 30 g a.i./ha pre-planting, Location B
smiles,measurement,setting,value
"COC(=O)c1csc(C)c1S(=O)(=O)NC(=O)n1nc(OC)n(C)c1=O [thiencarbazone-methyl, methyl 4-[(4,5-dihydro-3-methoxy-4-methyl-5-oxo-1H-1,2,4-triazol-1-yl)carbonylsulfamoyl]-5-methylthiophene-3-carboxylate]","establishment (EST1) score Av, 14 days after sowing","AHAS3 HETO111 (HETO108+HETO111 series), treatment B 10 g a.i./ha pre-planting, Location A",5.00
same,emergence (ERG) score Av,[1],5.00
same,"establishment (EST1) score Av, 14 days after sowing",[1],6.00
same,emergence (ERG) score Av,[2],4.67
same,"establishment (EST1) score Av, 14 days after sowing",[2],5.33
same,emergence (ERG) score Av,[3],4.00
same,"establishment (EST1) score Av, 14 days after sowing",[3],4.67
same,emergence (ERG) score Av,[4],4.33
same,"establishment (EST1) score Av, 14 days after sowing",[4],4.33
same,emergence (ERG) score Av,[5],4.00
same,"establishment (EST1) score Av, 14 days after sowing",[5],4.33
same,emergence (ERG) score Av,[6],5.33
same,"establishment (EST1) score Av, 14 days after sowing",[6],5.67
same,emergence (ERG) score Av,[7],4.67
same,"establishment (EST1) score Av, 14 days after sowing",[7],6.00
same,emergence (ERG) score Av,[8],4.33
same,"establishment (EST1) score Av, 14 days after sowing",[8],4.67
same,emergence (ERG) score Av,[9],4.67
same,"establishment (EST1) score Av, 14 days after sowing",[9],4.67
same,emergence (ERG) score Av,[10],4.33
same,"establishment (EST1) score Av, 14 days after sowing",[10],4.33
same,emergence (ERG) score Av,[11],3.67
same,"establishment (EST1) score Av, 14 days after sowing",[11],4.00
same,emergence (ERG) score Av,[12],1.00
same,"establishment (EST1) score Av, 14 days after sowing",[12],1.00
same,emergence (ERG) score Av,[13],3.00
same,"establishment (EST1) score Av, 14 days after sowing",[13],4.33
same,emergence (ERG) score Av,[14],1.00
same,"establishment (EST1) score Av, 14 days after sowing",[14],1.00
same,emergence (ERG) score Av,[15],1.67
same,"establishment (EST1) score Av, 14 days after sowing",[15],3.67
same,emergence (ERG) score Av,[16],1.00
same,"establishment (EST1) score Av, 14 days after sowing",[16],1.00
same,emergence (ERG) score Av,[17],1.33
same,"establishment (EST1) score Av, 14 days after sowing",[17],1.33
same,emergence (ERG) score Av,[18],2.33
same,"establishment (EST1) score Av, 14 days after sowing",[18],2.67
same,emergence (ERG) score Av,[19],3.33
same,"establishment (EST1) score Av, 14 days after sowing",[19],4.33
same,emergence (ERG) score Av,[20],1.00
same,"establishment (EST1) score Av, 14 days after sowing",[20],1.00
same,emergence (ERG) score Av,[21],2.33
same,"establishment (EST1) score Av, 14 days after sowing",[21],4.00
same,emergence (ERG) score Av,[22],1.00
same,"establishment (EST1) score Av, 14 days after sowing",[22],1.00
same,emergence (ERG) score Av,[23],1.33
same,"establishment (EST1) score Av, 14 days after sowing",[23],1.00
same,emergence (ERG) score Av,[24],1.00
same,"establishment (EST1) score Av, 14 days after sowing",[24],1.00
same,emergence (ERG) score Av,[25],3.67
same,"establishment (EST1) score Av, 14 days after sowing",[25],5.00
same,emergence (ERG) score Av,[26],1.00
same,"establishment (EST1) score Av, 14 days after sowing",[26],1.00
same,emergence (ERG) score Av,[27],1.67
same,"establishment (EST1) score Av, 14 days after sowing",[27],3.33
same,emergence (ERG) score Av,[28],1.00
same,"establishment (EST1) score Av, 14 days after sowing",[28],1.00
same,emergence (ERG) score Av,[29],1.33
same,"establishment (EST1) score Av, 14 days after sowing",[29],1.67
same,"establishment (EST2) score, Av","AHAS1 WT/AHAS3 HETO104, 10 g a.i./ha pre-planting (B), Location A",2.33
